Tested on: trans vivo delayed type hypersensitivity (DTH)
Assay: Trans vivo DTH model (footpad swelling)
Assay type: in vivo, mouse
Conditions: 10 mg/kg; 24 hours after PBMCs and TT
Protocol: FIGS. 8A and 8B show the ability of anti-PAR-2 antibodies Par-B (FIG. 8A) and Par-D (FIG. 8B) to inhibit trans vivo DTH. Shown are the changes in paw thickness after injection of human peripheral blood mononuclear cells alone (PBMC) or after injection of PBMCs and […] (TT). Mice were pretreated (ip at −3 hours) with PBS, hu IgG4 (20 mg/kg), or anti-PAR-2 antibody. Percent inhibition is shown at top of the bars. *p<0.05 as compared to PBS.
The trans vivo delayed type hypersensitivity (DTH) is a validated model of human T cell mediated inflammation in mice (Warnecke, G. et al. (2007) Transplantation 84(3):392-399; Pelletier, R. P. et al. (Mar. 28, 2007, Epub) Hum. Immunol. 68(6):514-522; Carrodeguas, L. et al. (1999) Hum. Immunol. 60(8):640-651). In this assay, human PBMCs from tetanus-sensitized donors are isolated and co-injected with tetanus toxoid (TT) into the mouse footpad. The swelling response that develops in the footpad is measured at 24 hours. This swelling response is dependent on antigen-specific activation of the human T cells as well as on the inflammation mediated by mouse cells.
Shown in FIG. 8A and FIG. 8B, are the changes in footpad thickness 24 hours after injection of PBMCs and TT.

C[C@@H]1C[C@H]2[C@@H]3CCC4=CC(=O)C=C[C@]4(C)[C@@]3(F)[C@@H](O)C[C@]2(C)[C@@]1(O)C(=O)CO [dexamethasone, reference compound]
inhibition of footpad swelling response: approximately 80%

From patent publication US20100119506A1, “Effectors of PAR-2 Activation and Their Use in the Modulation of Inflammation” (BOEHRINGER INGELHEIM INTERNATIONAL GMBH, priority 2008, published 2010)
